Assay results reported in patent US20240150363A1, “COELENTERAZINE ANALOGUES” (Promega Corporation, priority 2022, published 2024).

Tests used:
[1] = Stability of formulated Compound 6 (P-407 cake) in reconstitution buffers, LC-MS; type: physicochemical
Procedure: Experiments were conducted during development of embodiments herein to evaluate the stability of Compound 6 in various reconstitution buffer formulation. Briefly, 12 mg of Poloxamer 407 (P-407) was melted at 70˜75° C., and 4.2 μmol of Compound 6 was dissolved in 1 mL EtOH, followed by transferring the resulting solution to the melted P-407. The resulting mixture was rotated at 65˜75° C. to afford a homogeneous solution. The resulting solution was concentrated in vacuo and resuspended in 6 ml MQ water. 1 mL aliquots of the resuspended Compound 6 was then distributed into sample vials, frozen, and lyophilized to afford a formulated cake. Sample formulated cakes were then reconstituted in DPBS, HEPES, or Tris (pH 6.5, 7.5, or 8.0) buffers. Stability and purity were determined by LC-MS.

[2] = Systematic stability study of formulated Compound 6 reconstitution in buffers, LC-MS; type: physicochemical
Procedure: In addition to the stability experiments in Example 3, an additional systematic, controlled, and comprehensive stability study was conducted to evaluate the stability of formulated Compound 6 in various buffer formulation. Briefly, 4.2 μmol of Compound 6 was reconstituted in 1 mL of each buffer at the concentration and pH outlined in Table 1. Concentration and purity were determined by LC-MS. Briefly, 1 μL of sample was injected into an Eclipse RRHD C8 (50×2; 1 mm; 1.8 micron; λ=254 nm) with an aqueous mobile phase of 0.1% TFA in Nanopure water and an organic mobile phase of acetonitrile.

NLuc-HaloTag fusion [3] = molecular target: T1, NLuc-HaloTag fusion (Oplophorus gracilirostris, UniProt Q9GV45, A31E/A60N/A81I/F95D/I117V/K70R/L54V/L99Q/M102K/N193R/P142E/Q151K/Q38R/Q45L/V71I/Y165I); experiment: Total bioluminescence of purified NLuc-HaloTag fusion with substrate; type: biochemical; details: purified NLuc-HaloTag fusion 6 nM, substrate 20 μM, 1 min; compared to Furimazine and FluoroFurimazine
T1 construct: HaloTag (fusion partner)
Procedure: (§1) Experiments were conducted during development of embodiments herein to evaluate the influence of Furimazine analogs on the intensity of bioluminescence produced by either purified NLuc-HaloTag fusion or purified chimera (i.e., HT178-cpNLuc-179, generated by insertion of cpNLuc into HaloTag). Briefly, purified NLuc-HaloTag fusion or chimera was diluted in TBS+0.1% BSA to a final concentration of 6 nM, treated with substrate at a final concentration of 20 μM, and incubated for 1 min before measurements of total bioluminescence on a GloMax® Discover plate reader (Promega; n=3) or measurements of bioluminescence intensity across 400-600 nm on an Infinite M1000 plate reader (Tecan; n=1).

[4] = tested on: chimera (HT178-cpNLuc-179); experiment: Total bioluminescence of purified chimera with substrate; type: biochemical; details: purified chimera 6 nM, substrate 20 μM, 1 min; compared to Furimazine and FluoroFurimazine
Procedure: as §1

NLuc-HaloTag fusion [5] = molecular target: T1, NLuc-HaloTag fusion; experiment: Bioluminescence of HeLa cells transiently expressing NLuc-HaloTag fusion; type: cell-based; details: substrate 10 μM, 1 min, compared to Furimazine and FluoroFurimazine
Procedure: (§2) Additional experiments were conducted during development of embodiments herein to evaluate the influence of Furimazine analogs on the intensity of bioluminescence produced by transiently expressed NLuc-HaloTag fusion or chimera (i.e., HT178-cpNLuc-179, generated by insertion of cpNLuc into HaloTag). Briefly, HeLa cells diluted to 2.2×10^5 cells/mL in OptiMEM+2% serum were transfected with DNA encoding either NLuc-HaloTag fusion or chimera, plated in 96-well at 90 μL/well, and incubated overnight at 37° C.+5% CO2. Next day, cells were treated with substrate at a final concentration of 10 μM and incubated for 1 min before measurements of total bioluminescence on a GloMax® Discover plate reader (Promega; n=3) or measurements of bioluminescence intensity across 400-600 nm on an Infinite M1000 plate reader (Tecan; n=1).

[6] = tested on: chimera (HT178-cpNLuc-179); experiment: Bioluminescence of HeLa cells transiently expressing chimera; type: cell-based; details: substrate 10 μM, 1 min, compared to Furimazine and FluoroFurimazine
Procedure: as §2

[7] = reconstituted using glycerol (2%)

T1 sequence (Q9GV45 other isoform, or with tags, fused parts or gaps with the stated changes): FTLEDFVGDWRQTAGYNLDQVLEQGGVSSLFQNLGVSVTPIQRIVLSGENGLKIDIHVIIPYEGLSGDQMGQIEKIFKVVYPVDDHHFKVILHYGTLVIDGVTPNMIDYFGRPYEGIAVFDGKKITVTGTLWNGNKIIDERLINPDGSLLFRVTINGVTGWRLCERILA

Compound: O=c1c(Cc2ccco2)nc2c(Cc3ccccc3F)[nH]c(-c3cccc(F)c3F)cn1-2 [Compound 6, 6-(2,3-difluorophenyl)-8-(2-fluorobenzyl)-2-(furan-2-ylmethyl)imidazo[1,2-a]pyrazin-3(7H)-one]
- stability and purity ([1]; reconstituted in DPBS): lowest stability and purity
- purity after 3 h ([1]; reconstituted in HEPES): about 50%
- stability ([1]; reconstituted in HEPES): improved stability compared to DPBS
- purity after 3 h ([1]; reconstituted in Tris buffer): ~90%
- stability ([1]; reconstituted in Tris buffer): highest stability
- preservation based on purity and concentration data ([2]; in Tris (pH=8) buffer): well-preserved
- preservation based on purity and concentration data ([2]; in saline): well-preserved
- preservation based on purity and concentration data ([2]; in water): well-preserved
- precipitation / solubility ([2]; reconstituted using DPBS (pH 7.0)): visible precipitation
- precipitation / solubility ([2]; reconstituted using Tris (pH=6.5)): visible precipitation
- purity over a 6-hour period ([2]; reconstituted using Tris (pH=8)): greater than 90%
- purity over a 6-hour period ([2]; reconstituted using acetate (sodium acetate pH 5.2)): greater than 90%
- precipitation / solubility ([2]; reconstituted using bicarbonate (pH 9.5)): visible precipitation
- purity over a 6-hour period ([2]; reconstituted using citrate (pH 6.0)): greater than 90%
- precipitation / solubility [2, 7]: visible precipitation
- purity over a 6-hour period [2, 7]: greater than 90%
- purity over a 6-hour period ([2]; reconstituted using saline (0.9%)): greater than 90%
- purity over a 6-hour period ([2]; reconstituted using water): greater than 90%

Compound: Cc1ccc(Cc2nc3c(Cc4ccccc4F)[nH]c(-c4cccc(F)c4F)cn-3c2=O)o1 [Compound 10, 6-(2,3-difluorophenyl)-8-(2-fluorobenzyl)-2-((5-methylfuran-2-yl)methyl)imidazo[1,2-a]pyrazin-3(7H)-one]
- bioluminescence signal as a substrate (NLuc-HaloTag fusion [3]): significantly brighter signal
- bioluminescence signal as a substrate [4]: significantly brighter signal
- bioluminescence signal as a substrate (NLuc-HaloTag fusion [5]): significantly brighter signal
- bioluminescence signal as a substrate [6]: significantly brighter signal
